B1: DN-ETS2: dominant negative truncated human ETS2 protein, DNA binding domain (C-terminal amino acids 334-469), expressed from plasmid pDN-ETS2 (protein, UniProt P15036 334-469, looked up, fragment)
chain: YIQERSDPVEQGKPVIPAAVLAGFTGSGPIQLWQFLLELLSDKSCQSFISWTGDGWEFKLADPDEVARRWGKRKNKPKMNYEKLSRGLRYYYDKNIIHKTSGKRYVYRFVCDLQNLLGFTPEELHAILGVQPDTED

Assays:
[1] = test system: LNCaP human prostate cell line; assay: Soft agar growth assay, LNCaP; type: cell-based; details: de novo expression of ETS2 in weakly tumorigenic LNCaP
Protocol: (§1) Transfection of LNCaP was performed in 35-mm wells using 2 μg of DNA and Superfact Reagent (Qiagen, Calif.). Selection for stable LNCaP transfectants was in 450 μg/ml G418. DU145 and PC3 cells were transfected using LipofectAmine ([…]/35 mm well, Life Technologies Inc., Bethesda, Md.). Stable DU145 and PC3 transfectants were expanded in the presence of 300 μg/ml G418.
(§2) Soft agar growth assays were performed in six-well plates (35-mm wells). Cells (20,000) were plated in 0.4% agar (Sigma) in RPMI 1640 supplemented with 10% FBS. An underlayer of 0.8% agar was used to prevent attachment of cells. Triplicate assays initiated with 20,000 cells were fed weekly by agar overlay and scored after 3 weeks. The soft agar assays were performed twice, independently.

DU145 cells = assay: Soft agar growth assay (anchorage independent growth), DU145; type: cell-based, human; details: DN-ETS2 transfectants vs DU145 parental cell line, after three weeks
Protocol: as §1, §2

Molecule | ability to grow in soft agar [1] | anchorage-independent growth in soft agar (DU145 cells)
ETS2: wild type human ETS2 transcription factor, expressed de novo in LNCaP from ETS2 cDNA in sense orientation | increases its ability to grow in soft agar | –
B1 | – | do not grow well in soft agar

Reference: patent US20040047845A1, “Methods and compositions for diagnosis and treatment of cancer based on the transcription factor ets2” (MUSC Foundation For Research Development, priority 1998, published 2004)
